Among the data in the SangsterLogP compilation are logP values, retold here.

`CONC(=O)[C@@H](C(C)C)N(Cc1cccnc1)S(=O)(=O)c1ccccc1Br` displayed a logP of 3.34.

`CC(C)[C@H](C(=O)NO)N(Cc1cccnc1)S(=O)(=O)c1ccc(F)cc1`: the log partition coefficient (logP) was found to be 1.4.

For the compound `CONC(=O)[C@@H](C(C)C)N(Cc1cccnc1)S(=O)(=O)c1ccc(Cl)cc1`, the logP came to 2.4.

On to `CC(C)[C@H](C(=O)NO)N(Cc1cccnc1)S(=O)(=O)c1cccc(Cl)c1`, for which the logP was 1.82.

`CONC(=O)C(C(C)C)N(Cc1cccnc1)S(=O)(=O)c1ccc(I)cc1` (configuration not stated) yielded a logP of 3.11.

Regarding `CONC(=O)[C@@H](C(C)C)N(Cc1cccnc1)S(=O)(=O)c1ccc(F)cc1`, the log partition coefficient (logP) was found to be 2.

Compound `CC(C)[C@H](C(=O)NO)N(Cc1cccnc1)S(=O)(=O)c1ccc(Cl)cc1` returned a logP of 1.81.

On to `CONC(=O)[C@@H](C(C)C)N(Cc1cccnc1)S(=O)(=O)c1cccc(Cl)c1`, for which the logP is 2.38.

Consider `CONC(=O)[C@@H](C(C)C)N(Cc1cccnc1)S(=O)(=O)c1ccc(Br)cc1`, for which the logP stood at 2.51.

For the compound `CC(C)[C@H](C(=O)NO)N(Cc1cccnc1)S(=O)(=O)c1ccccc1F`, the logP was 1.65.

Turning to `CONC(=O)[C@@H](C(C)C)N(Cc1cccnc1)S(=O)(=O)c1ccccc1F`, the logP was 2.67.

Compound `CC(C)C(C(=O)NO)N(Cc1cccnc1)S(=O)(=O)c1ccccc1Br` (configuration not stated) showed a log partition coefficient (logP) of 1.54.

The compound `CC(C)[C@H](C(=O)NO)N(Cc1cccnc1)S(=O)(=O)c1ccccc1Cl` had a logP of 1.45.

`CC(C)C(C(=O)NO)N(Cc1cccnc1)S(=O)(=O)c1ccc(Br)cc1` (configuration not stated) displayed a logP of 1.91.

Regarding `CC(C)[C@H](C(=O)NO)N(Cc1cccnc1)S(=O)(=O)c1cccc(Br)c1`, the logP was 1.92.

Take `CC(C)[C@H](C(=O)NO)N(Cc1cccnc1)S(=O)(=O)c1ccc(I)cc1`: the logP came out at 2.45.

`CONC(=O)[C@@H](C(C)C)N(Cc1cccnc1)S(=O)(=O)c1ccccc1Cl` returned a logP of 2.01.
